Data reported in the RepoRT retention time repository (doi:10.3390/metabo9050085).

Assay: Phenomenex Kinetex C18, 150 × 2.1 mm, 1.7 µm, 30 °C, 0.3 mL/min; A: water + 0.1% formic acid; B: acetonitrile + 0.1% formic acid; gradient (min/%B) 0/2 14/100 17/100 17/2 25/2
Conditions: stereoisomer not certain

SMILES | LC retention time [min]
CC12CCC(=O)C=C1CCC1C2CCC2(C)C(O)CC(O)C12 (stereo not given) | 6.97
CC12CCC(=O)C=C1CC(O)C1C2CCC2(C)C(O)CCC12 (stereo not given) | 7.06
CC12CCC3C(CC=C4CC(OS(=O)(=O)O)CCC43C)C1CCC2=O (stereo not given) | 9.91
CC12CC(O)C3C(CCC4=CC(=O)CCC43C)C1CCC2=O (stereo not given) | 8.87
CC(O)C1CCC2C3CCC4CC(=O)CCC4(C)C3CCC12C (stereo not given) | 13.9
CC12CCC(O)CC1=CCC1C2CCC2(C)C1CCC2(O)C(=O)CO (stereo not given) | 8.44
CC12CC(=O)C3C(CCC4CC(O)CCC43C)C1CCC2C(O)CO (stereo not given) | 8.54
CC(O)C1CCC2C3CCC4=CC(=O)CCC4(C)C3CCC12C (stereo not given) | 12
CC12CCC(O)CC1CCC1C2C2CC3(C(O)O2)C(C(=O)CO)CCC13 (stereo not given) | 7.18
COc1cc2c(cc1O)CCC1C2CCC2(C)C(=O)CCC12 (stereo not given) | 11.3
CC12CCC3c4ccc(OS(=O)(=O)O)cc4CCC3C1CCC2=O (stereo not given) | 8.65
COc1cc2c(cc1O)C1CCC3(C)C(=O)CCC3C1CC2 (stereo not given) | 9.83
CC12CCC(=O)C=C1CCC1C2CCC2(C)C1CCC2(O)CCO (stereo not given) | 10
CC12CCC3C(C(O)CC4CC(O)CCC43C)C1CC(O)C2 (stereo not given) | 7.39
CC12CCC3c4ccc(O)cc4C(O)CC3C1CCC2O (stereo not given) | 7.01
CC12CCC3C(CCC4=CC(=O)CCC43C=O)C1CCC2=O (stereo not given) | 9.42
CC12CCC(=O)C=C1CCC1C2C(O)CC2(C)C(C(=O)CO)CCC12 (stereo not given) | 8.81
CC(=O)C1CCC2C3CC=C4CC(O)CCC4(C)C3CCC12C (stereo not given) | 13
CC12CCC(=O)CC1CCC1C2C(O)CC2(C=O)C(C(=O)CO)CCC12 (stereo not given) | 7.97
CC12CCC3C(CCC4=CC(=O)CCC43CO)C1CCC2=O (stereo not given) | 7.72
CC12CCC(=O)C=C1CCC1C2C(O)CC2(C)C(O)CCC12 (stereo not given) | 8.2
CC12CCCC1C1CC(O)C3(O)CC(O)CCC3(C)C1CC2 (stereo not given) | 10.5
CC12CCC(=O)C=C1CCC1C2C(O)CC2(CO)C1CCC2(O)C(=O)CO (stereo not given) | 6.52
CC(=O)C1CCC2C3CCC4=CC(=O)CCC4(C)C3CCC12C (stereo not given) | 12.9
CC12CCC(O)CC1=CCC1C2CCC2(C)C(O)C(=O)CC12 (stereo not given) | 8.03

SMILES | LC retention time [min]
CC12CCC(=O)C=C1CCC1C2CCC2(C)C1CCC2(O)C(=O)CO (stereo not given) | 9.04
CC12CC(=O)C3C(CCC4CC(O)CCC43C)C1CCC2C(=O)CO (stereo not given) | 9.06
CC(CCC(=O)O)C1CCC2C3CCC4CCCCC4(C)C3CC(O)C12C (stereo not given) | 16.7
COc1cc2c(cc1O)CCC1C2CCC2(C)C(O)CCC12 (stereo not given) | 10.5
CC12CCCC1C1CCC3CC(O)CCC3(C)C1CC2 (stereo not given) | 12.9
CC12CCC3c4ccc(O)c(O)c4CCC3C1CCC2O (stereo not given) | 7.61
CC12CCC3C(C(O)CC4=CC(=O)CCC43C)C1CCC2=O (stereo not given) | 7.78
CC12CCC(O)CC1=CCC1C2CCC2(C)C(C(=O)CO)CCC12 (stereo not given) | 10.5
CC12CCC3C4CCC(=O)CC4CCC3C1CCC2O (stereo not given) | 9.72
CC12CCC3C(CCC4=CC(=O)CCC43CO)C1CCC2O (stereo not given) | 7.3
COc1c(O)ccc2c1CCC1C2CCC2(C)C(=O)CCC12 (stereo not given) | 9.74
CC12CCC3c4cc(O)c(O)cc4CCC3C1CCC2=O (stereo not given) | 8.07
CC12CCC(=O)C=C1CCC1C2C(O)CC2(C=O)C(C(=O)CO)CCC12 (stereo not given) | 7.15
CC12CCC3C(CCC4=CC(=O)CCC43C)C1CCC2=O (stereo not given) | 10.8
CC12CCC3c4ccc(O)cc4CCC3C1C(O)CC2=O (stereo not given) | 7.7
CC12CCC3C(C(O)CC4CC(O)CCC43C)C1CCC2=O (stereo not given) | 8.74
CC12CCC(=O)CC1CCC1C2CCC2(C)C(OS(=O)(=O)O)CCC12 (stereo not given) | 10.6
CC12CCC3c4ccc(O)cc4CCC3C1CCC2=O (stereo not given) | 10.7
CC12CCC(=O)C=C1CCC1C2C(=O)CC2(C)C1CCC2(O)C(=O)CO (stereo not given) | 7.75
COc1cc2c(cc1O)C1CCC3(C)C(O)CCC3C1CC2 (stereo not given) | 9.26
CC12CCC3c4ccc(O)cc4CC(O)C3C1CCC2O (stereo not given) | 7.15
CC12CCC3C(CC=C4CC(=O)CCC43C)C1CCC2=O (stereo not given) | 11
CC12CCC(=O)C=C1CCC1C2CCC2(C)C(OS(=O)(=O)O)CCC12 (stereo not given) | 9.81
CC(C(=O)O)C1CCC2C3C(O)CC4CC(O)CCC4(C)C3CC(O)C12C (stereo not given) | 8.37
CC12CCC3C(CCC4=CC(=O)CCC43C(=O)O)C1CCC2C(=O)CO (stereo not given) | 8.03

SMILES | LC retention time [min]
CC12CCC3C4=C(CCC3C1CCC2O)C(=O)C(=O)C=C4 (stereo not given) | 7.81
CC12CCC(=O)CC1CCC1C2CCC2(C)C(C(=O)CO)CCC12 (stereo not given) | 11.6
CC12CCC(O)CC1CCC1C2CCC2(C)C(C(=O)CO)CCC12 (stereo not given) | 11.3
CC(=O)C1C(O)CC2C3CC=C4CC(O)CCC4(C)C3CCC21C (stereo not given) | 9.87
CC12CCC(O)CC1=CC(O)C1C2CCC2(C)C(O)CCC12 (stereo not given) | 7.81
CC12CCC(=O)C=C1CCC1C2C(O)CC2(C)C(C(=O)CC(=O)O)CCC12 (stereo not given) | 9.18
CC12CCC3C4=CC(=O)C(=O)C=C4CCC3C1CCC2O (stereo not given) | 7.58
CC12CCC(=O)C=C1CCC1C2C(O)CC2(CO)C(C(=O)CO)CCC12 (stereo not given) | 7.34
CC12CCC3c4ccc(O)cc4C(O)CC3C1CCC2=O (stereo not given) | 7.97
CC12CCC(O)CC1=CCC1C2C(O)CC2(C)C1CCC2(O)C(=O)CO (stereo not given) | 8.15
CC12CCC(O)CC1CCC1C2C(=O)CC2(CO)C(C(=O)CO)CCC12 (stereo not given) | 7.57
CC12CCC3c4ccc(OS(=O)(=O)O)c(O)c4CCC3C1CCC2=O (stereo not given) | 7.73
CC12CCC3C(CCC4=CC(=O)CCC43C=O)C1CCC2C(=O)CO (stereo not given) | 8.89
O=CC12CC(O)C3C4CCC(=O)C=C4CCC3C1CCC2C(=O)CO (stereo not given) | 7.1
CC12CCC3c4ccc(O)cc4CCC3C1CC(=O)C2=O (stereo not given) | 7.82
CC12CCC(=O)C=C1CCC1C2CCC2(C)C(C(=O)CO)CCC12 (stereo not given) | 10.5
CC12CCC3C(CCC4=CC(=O)CCC43C)C1CC(O)C2=O (stereo not given) | 8.39
CC(=O)C1(O)CCC2C3CCC4=CC(=O)CCC4(C)C3CCC21C (stereo not given) | 10.9
CC12CCC(=O)C=C1CCC1C2C(O)CC2(C)C1CCC2(O)C(=O)CO (stereo not given) | 7.61
CC12CCC3C(CC(O)C4CC(O)CCC43C)C1CCC2O (stereo not given) | 8.18
CC12CCC(O)CC1CCC1C2C(O)CC2(C=O)C(C(=O)CO)CCC12 (stereo not given) | 7.76
CC12CCC(=O)C=C1CCC1C2C(O)CC2(C)C(C(=O)C(=O)O)CCC12 (stereo not given) | 8.1
CC(O)C1(O)CCC2C3CCC4CC(O)CCC4(C)C3CCC21C (stereo not given) | 11
CC12CCC(=O)C=C1CCC1C2C(=O)CC2(C)C(C(=O)CO)CCC12 (stereo not given) | 8.53
CC(O)C1(O)CCC2C3CCC4CC(O)CCC4(C)C3C(=O)CC21C (stereo not given) | 8.66

SMILES | LC retention time [min]
CC(=O)C1(O)CCC2C3CCC4=CC(=O)CCC4(C)C3C(O)CC21C (stereo not given) | 8.8
CC(CCC(=O)O)C1CCC2C3CC=C4CC(O)CCC4(C)C3CCC12C (stereo not given) | 15.8
CC(=O)C1C(O)CC2C3CCC4=CC(=O)CCC4(C)C3CCC21C (stereo not given) | 9.08
CC12CCC(O)CC1CCC1C2C(=O)CC2(C)C1CCC2(O)C(=O)CO (stereo not given) | 8.38
CC(=O)C1CCC2C3C(O)C=C4CC(O)CCC4(C)C3CCC12C (stereo not given) | 8.93
CC(=O)C1=CCC2C3CCC4=CC(=O)CCC4(C)C3CCC12C (stereo not given) | 12.7
CC12CCC(=O)C=C1CCC1C2C(O)CC2(C=O)C1CCC2(O)C(=O)CO (stereo not given) | 6.76
CC(O)C1(O)CCC2C3CCC4=CC(=O)CCC4(C)C3CCC21C (stereo not given) | 9.92
COc1cc2c(cc1OC)C1CCC3(C)C(O)CCC3C1CC2 (stereo not given) | 11.5
CC12CCC3C(CCC4=CC(=O)CCC43C=O)C1CCC2O (stereo not given) | 8.59
CC12CC(=O)C3C(CCC4=CC(=O)CCC43C)C1CCC2=O (stereo not given) | 8.68
CC12CCC3c4ccc(O)cc4C(=O)CC3C1CC(O)C2O (stereo not given) | 6.59
CC12CCC(O)CC1=CCC1C2CCC2(C)C(O)CCC12 (stereo not given) | 10.8
CC12CCC(O)C=C1CCC1C2CCC2(C)C(O)CCC12 (stereo not given) | 9.76
CC12CCC3c4ccc(O)c(O)c4CCC3C1CCC2=O (stereo not given) | 8.06
CC(=O)C1CCC2C3=CC=C4CC(O)CCC4(C)C3CCC12C (stereo not given) | 11.6
CC12CCC3c4ccc(O)cc4CCC3C1C(O)CC2O (stereo not given) | 7.33
CC12CCC(O)CC1CCC1C2CCC2(C)C1CCC2(O)C(=O)CO (stereo not given) | 10.1
CC12C=CCC1C1CCC3CC(O)CCC3(C)C1CC2 (stereo not given) | 11.9
CC12CCC(O)CC1CCC1C2CC(O)C2(C)CCC(O)C12 (stereo not given) | 6.31
CC(=O)C1(O)CCC2C3CC=C4CC(O)CCC4(C)C3CCC21C (stereo not given) | 10.7
CC12CCC3C(C(=O)CC4CC(O)CCC43C)C1CCC2=O (stereo not given) | 8
CC12CCC3c4cc(O)c(O)cc4CCC3C1CCC2O (stereo not given) | 7.86
CC12CCC3C(CCC4CC(OS(=O)(=O)O)CCC43C)C1CCC2=O (stereo not given) | 10.5
CC12C=CC(=O)CC1CCC1C2CCC2(C)C(O)CCC12 (stereo not given) | 9.97
